Data from patent publication US8158621B2, “Methods of treating or preventing autoimmune diseases with 2,4-pyrimidinediamine compounds” (Rigel Pharmaceuticals, Inc., priority 2002, dated 2012).

test system: Human Jurkat T-cells (clone N); test: Jurkat T-cell activation (anti-TCR, CD69 upregulation); assay type: cell-based; conditions: not given
Summary of the method: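 Readout is CD69 upregulation by flow cytometry (anti-CD69-APC, 20 min at 4 °C) after 20 h anti-TCR (C305, 500 ng/ml) stimulation at 37 °C.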

SMILES | IC50
CC1(C)Oc2ccc(Nc3nc(Cl)ncc3F)cc2NC1=O [Compound R940322] | 4.57 µM
CC1(C)CN(c2ccccn2)c2cc(Nc3nc(Cl)ncc3F)ccc2O1 [Compound R940336] | > 10 µM
CNC(=O)COc1cccc(Nc2ncc(F)c(Nc3ccc4c(c3)N(c3ccccn3)CC(C)(C)O4)n2)c1 [Compound R940337] | 1.82 µM
Cn1ncc2cc(Nc3ncc(F)c(Nc4ccc5c(c4)NC(=O)C(C)(C)O5)n3)ccc21 [Compound R940338] | 0.708 µM
O=C1Nc2cc(Nc3nc(Cl)ncc3F)ccc2OC1(F)F [Compound R940342] | 5.12 µM
CC1(C)Oc2cc(Nc3nc(Cl)ncc3F)cnc2NC1=O [Compound R940344] | 7.74 µM
CNC(=O)COc1cccc(Nc2ncc(F)c(Nc3cnc4c(c3)OC(C)(C)C(=O)N4)n2)c1 [Compound R940345] | 5.4 µM
CC1(C)Oc2ccc(Nc3nc(Nc4cccc(O)c4)ncc3F)cc2NC1=O [Compound R940346] | 2.09 µM
NC(=O)COc1ccc(Nc2ncc(F)c(Nc3ccc(OCC(N)=O)cc3)n2)cc1 [Compound R945025] | 7.03 µM
N#CCOc1ccc(Nc2ncc(F)c(Nc3ccc(OCC#N)cc3)n2)cc1 [Compound R945032] | 15.2 µM
Fc1cnc(Nc2ccc(OCc3nn[nH]n3)cc2)nc1Nc1ccc(OCc2nn[nH]n2)cc1 [Compound R945033] | > 10 µM
Cn1nnc(COc2ccc(Nc3ncc(F)c(Nc4ccc(OCc5nnn(C)n5)cc4)n3)cc2)n1 [Compound R945046] | 4.08 µM
Cn1nnc(COc2ccc(Nc3nc(Nc4ccc(OCc5nnnn5C)cc4)ncc3F)cc2)n1 [Compound R945047] | 3.21 µM
Cn1nnnc1COc1ccc(Nc2ncc(F)c(Nc3ccc(OCc4nnnn4C)cc3)n2)cc1 [Compound R945048] | 2.23 µM
COC(=O)COc1ccc(Nc2ncc(F)c(Nc3ccc(OCC(N)=O)cc3)n2)cc1 [Compound R945052] | > 10 µM
COC(=O)COc1ccc(Nc2ncc(F)c(Nc3ccc(OCC#N)cc3)n2)cc1 [Compound R945053] | 2.67 µM
COC(=O)COc1ccc(Nc2nc(Nc3ccc(OCC(N)=O)cc3)ncc2F)cc1 [Compound R945060] | 6.08 µM
COC(=O)COc1ccc(Nc2nc(Nc3ccc(OCC#N)cc3)ncc2F)cc1 [Compound R945062] | > 10 µM
NC(=O)COc1ccc(Nc2nc(Nc3cccc(O)c3)ncc2F)cc1 [Compound R945063] | 6.04 µM
NC(=O)COc1ccc(Nc2ncc(F)c(Nc3cccc(O)c3)n2)cc1 [Compound R945064] | 4.68 µM
N#CCOc1ccc(Nc2ncc(F)c(Nc3cccc(O)c3)n2)cc1 [Compound R945070] | > 10 µM
N#CCOc1ccc(Nc2nc(Nc3cccc(O)c3)ncc2F)cc1 [Compound R945071] | 0.631 µM
CON=C(N)COc1ccc(Nc2ncc(F)c(Nc3ccc(OCC(N)=NOC)cc3)n2)cc1 [Compound R945096] | 2.8 µM
N#CCOc1ccc(Nc2nc(Nc3ccc(OCC(=O)O)cc3)ncc2F)cc1 [Compound R945097] | > 10 µM
COC(=O)COc1ccc(Nc2ncc(F)c(Nc3cccc(C#N)c3)n2)cc1 [Compound R945110] | > 10 µM

SMILES | IC50
COC(=O)COc1cccc(Nc2ncc(F)c(Nc3cccc(O)c3)n2)c1 [Compound R945118] | 9.49 µM
COC(=O)COc1cccc(Nc2ncc(F)c(Nc3ccc4c(c3)OCCO4)n2)c1 [Compound R945124] | 6.16 µM
COC(=O)COc1cccc(Nc2ncc(F)c(Nc3ccc(OC(C)C)cc3)n2)c1 [Compound R945125] | > 10 µM
O=C(O)COc1cccc(Nc2ncc(F)c(Nc3cccc(O)c3)n2)c1 [Compound R945126] | > 10 µM
Cc1nc(COc2cccc(Nc3ncc(F)c(Nc4cccc(O)c4)n3)c2)no1 [Compound R945127] | 11.1 µM
Cc1nc(COc2cccc(Nc3ncc(F)c(Nc4ccc5c(c4)OCCO5)n3)c2)no1 [Compound R945128] | 4.31 µM
Cc1nc(COc2cccc(Nc3ncc(F)c(Nc4ccc(OC(C)C)cc4)n3)c2)no1 [Compound R945129] | 6.08 µM
Cc1noc(COc2cccc(Nc3nc(Nc4cccc(O)c4)ncc3F)c2)n1 [Compound R945130] | > 10 µM
COC(=O)c1cc2cc(Nc3nc(Nc4cccc(OCc5noc(C)n5)c4)ncc3F)ccc2o1 [Compound R945131] | 19.2 µM
Cc1nc(COc2cccc(Nc3nc(Nc4cccc(O)c4)ncc3F)c2)no1 [Compound R945132] | 20.2 µM
Cc1nc(COc2cccc(Nc3nc(Nc4ccc(OCC(N)=O)cc4)ncc3F)c2)no1 [Compound R945133] | 9.14 µM
Cc1nc(COc2cccc(Nc3ncc(F)c(Nc4ccc5oc(C(N)=O)cc5c4)n3)c2)no1 [Compound R945135] | 4.37 µM
Cc1nc(COc2cccc(Nc3nc(Nc4ccc5c(c4)OCCO5)ncc3F)c2)no1 [Compound R945137] | 5.43 µM
Cc1nc(COc2cccc(Nc3nc(Nc4ccc(OC(C)C)cc4)ncc3F)c2)no1 [Compound R945138] | > 10 µM
COC(=O)COc1cccc(Nc2ncc(F)c(Nc3cc(C)c(O)c(C)c3)n2)c1 [Compound R945139] | 13.9 µM
Cc1cc(Nc2nc(Nc3cccc(OCC(=O)N4CCNCC4)c3)ncc2F)cc(C)c1O [Compound R945140] | 2.09 µM
COC(=O)COc1cccc(Nc2ncc(F)c(Nc3cc(C)c(O)c(Cl)c3)n2)c1 [Compound R945148] | 16.2 µM
Cc1cc(Nc2nc(Nc3cccc(OCC(=O)N4CCNCC4)c3)ncc2F)cc(Cl)c1O [Compound R945149] | 1.23 µM
Cc1cc(Nc2nc(Nc3cccc(OCCN4CCNCC4)c3)ncc2F)cc(Cl)c1O [Compound R945150] | 1.11 µM
COC(=O)COc1cccc(Nc2ncc(F)c(Nc3cc(C)c(OC)c(C)c3)n2)c1 [Compound R945153] | 9.74 µM
COc1c(C)cc(Nc2nc(Nc3cccc(OCC(=O)N4CCNCC4)c3)ncc2F)cc1C [Compound R945156] | 2.29 µM
CON=C(N)COc1ccc(Nc2ncc(F)c(Nc3cccc(O)c3)n2)cc1 [Compound R945167] | 5.07 µM
Oc1cccc(Nc2nc(Nc3ccc(OCC4=NCCCN4)cc3)ncc2F)c1 [Compound R945169] | 2.38 µM
CNC(=O)COc1ccc(Nc2ncc(F)c(Nc3cccc(O)c3)n2)cc1 [Compound R945170] | 4.12 µM
NC(=O)COc1ccc(Nc2nc(Nc3ccc4c(c3)OCCO4)ncc2F)cc1 [Compound R945171] | 3.19 µM

same assay, conditions: Homo sapiens, Jurkat

SMILES | IC50
COC(=O)c1ccc(Nc2ncc(F)c(Nc3ccc(C(=O)OC)cc3)n2)cc1 [Compound R945034] | > 10 µM
COC(=O)c1cccc(Nc2ncc(F)c(Nc3cccc(C(=O)OC)c3)n2)c1 [Compound R945035] | > 10 µM
O=C(O)c1cccc(Nc2ncc(F)c(Nc3cccc(C(=O)O)c3)n2)c1 [Compound R945036] | > 10 µM
O=C(O)c1ccc(Nc2ncc(F)c(Nc3ccc(C(=O)O)cc3)n2)cc1 [Compound R945037] | > 10 µM
Cc1c(O)cccc1Nc1ncc(F)c(Nc2cccc(O)c2C)n1 [Compound R945038] | > 10 µM
CCNC(=O)Nc1ccc(Nc2ncc(F)c(Nc3ccc(NC(=O)NCC)cc3)n2)cc1 [Compound R945040] | > 10 µM
O=C(O)c1cc(Nc2ncc(F)c(Nc3ccc(O)c(C(=O)O)c3)n2)ccc1O [Compound R945041] | > 10 µM
COC(=O)c1cc(Nc2ncc(F)c(Nc3ccc(O)c(C(=O)OC)c3)n2)ccc1O [Compound R945043] | > 10 µM
CCNC(=O)Nc1cccc(Nc2ncc(F)c(Nc3cccc(NC(=O)NCC)c3)n2)c1 [Compound R945045] | 7.6 µM
N#Cc1cccc(Nc2ncc(F)c(Nc3cccc(C#N)c3)n2)c1 [Compound R945051] | > 10 µM
COC(=O)c1ccc(Nc2ncc(F)c(Nc3ccc(C(=O)OC)c(O)c3)n2)cc1O [Compound R945056] | > 10 µM
N#Cc1ccc(Nc2ncc(F)c(Nc3ccc(C#N)cc3)n2)cc1 [Compound R945057] | > 10 µM
O=C(O)c1ccc(Nc2ncc(F)c(Nc3ccc(C(=O)O)c(O)c3)n2)cc1O [Compound R945061] | > 10 µM
COC(=O)c1ccc(Nc2ncc(F)c(Nc3ccc(C(=O)OC)c(OC)c3)n2)cc1OC [Compound R945065] | 14.4 µM
COC(=O)c1cc(Nc2ncc(F)c(Nc3ccc(OC)c(C(=O)OC)c3)n2)ccc1OC [Compound R945066] | 43.2 µM
COc1ccc(Nc2ncc(F)c(Nc3ccc(OC)c(C(=O)O)c3)n2)cc1C(=O)O [Compound R945067] | > 10 µM
COc1cc(Nc2ncc(F)c(Nc3ccc(C(=O)O)c(OC)c3)n2)ccc1C(=O)O [Compound R945068] | > 10 µM
N#Cc1cccc(Nc2nc(Nc3cccc(O)c3)ncc2F)c1 [Compound R945109] | 9.64 µM
Oc1cccc(Nc2nc(NCCc3c[nH]c4ccccc34)ncc2F)c1 [Compound R945117] | > 10 µM
Fc1cnc(NCc2csc3ccccc23)nc1NCc1csc2ccccc12 [Compound R945145] | > 10 µM
Oc1cccc(Nc2ncc(F)c(NCc3csc4ccccc34)n2)c1 [Compound R945146] | > 10 µM
Cc1cc(CNc2nc(Nc3cccc(O)c3)ncc2F)c(C)o1 [Compound R945151] | > 10 µM
Fc1cnc(Nc2ccc(N3CCN(Cc4ccccc4)CC3)cc2)nc1Nc1ccc(N2CCN(Cc3ccccc3)CC2)cc1 [Compound R945152] | > 10 µM
Fc1cnc(Nc2ccc3c(c2)OCCO3)nc1Nc1ccc(N2CCN(Cc3ccccc3)CC2)cc1 [Compound R945155] | 7.07 µM
Cc1cc(CNc2ncc(F)c(Nc3cccc(O)c3)n2)c(C)o1 [Compound R945162] | > 10 µM
Fc1cnc(Nc2ccc(N3CCN(Cc4ccccc4)CC3)cc2)nc1Nc1ccc2c(c1)OCCO2 [Compound R945163] | > 10 µM
Oc1cccc(Nc2nc(NCc3csc4ccccc34)ncc2F)c1 [Compound R945164] | > 10 µM
Oc1cccc(Nc2nc(NCc3cccnc3)ncc2F)c1 [Compound R945165] | > 10 µM
Oc1cccc(Nc2nc(NCc3ccccn3)ncc2F)c1 [Compound R945166] | > 10 µM
Oc1cccc(Nc2nc(NCc3ccc4c(c3)OCCO4)ncc2F)c1 [Compound R945168] | > 10 µM
